For test [1], the system named is A/Parma/24/09 H1N1 (Brisbane-like) oseltamivir-resistant virus. The conditions noted are these: Table 1; turkey erythrocytes; cited from earlier work.
The test system is the same in test [2]. The conditions noted are these: MDCK cells, c.p.e. by neutral red, 48 h; cited from earlier work.
The test system is the same in test [3]. Description: microbe, parasite or virus in culture. Type of test: cell-based, Influenza A virus. The conditions noted are these: for EC50: Influenza A virus, H1N1, MDCK, 48 h, read-out: EC50 A/Parma H1N1.
Test [4] has the same test system. It is filed as biochemical, Influenza A virus. As to conditions: Table 2; turkey erythrocytes; dash = not active.

Where two headings read alike, the source gives them in different places.

For the compound `Cc1ccc(S(=O)(=O)NC(C)c2ccc(-n3ccnc3)cc2)cc1C` (stereo not shown) [Compound 1], the “HI Titer A/Parma H1N1” value in test [1] was 0.48 µM. In test [2], the EC50 is 125 nM.

For the compound `Fc1ccc(CNc2ncnc3[nH]cnc23)cc1` [Compound 2], the “HI Titer A/Parma H1N1” value in test [1] is 0.48 µM.

In the case of `COc1ccc(C(=O)Nc2cccc(S(=O)(=O)NCc3ccco3)c2)cc1` [Compound 3], in test [1], the “HI Titer A/Parma H1N1” value was 0.48 µM.

In the case of `Cc1ccc(F)cc1NC(=O)COC(=O)c1ccc2ccccc2n1` [Compound 4], the “HI Titer A/Parma H1N1” value in test [1] is 0.48 µM. Besides, the EC50 in test [2] is 125 nM.

`Cc1ccc2nc(CNc3ccc(C)c(Cl)c3)cc(=O)n2c1` [Compound 5]: in test [1], the “HI Titer A/Parma H1N1” value is 0.48 µM.

As to `O=C(CC1(O)C(=O)Nc2ccccc21)c1ccccn1` (stereo not shown) [Compound 6], in test [3], the “SI (selectivity index) = CC50/EC50, A/Parma H1N1” value is 0.34 × 10^2 and the EC50 is 900 nM. For the same compound, the “HI Titer A/Parma H1N1” value in test [4] is recorded as 0.012 pM.

In the case of `N#Cc1ccc(NC(=O)COC(=O)c2ccccn2)cc1` [Compound 7], in test [3], the “SI (selectivity index) = CC50/EC50, A/Parma H1N1” value is reported as 0.34 × 10^2 and the EC50 came to 900 nM. Also, the “HI Titer A/Parma H1N1” value in test [4] is on record as 0.012 pM.

On to `O=C(OCC(=O)N1CCc2ccccc21)c1ccccn1` [Compound 8], for which, in test [4], the “HI Titer A/Parma H1N1” value was 0.012 pM.

For `CN(C(=O)COC(=O)c1ccc2ccccc2n1)c1ccccc1` [Compound 9], the “HI Titer A/Parma H1N1” value in test [4] is recorded as 0.012 pM.

Regarding `CCc1ccc(NC(=O)C(C)OC(=O)c2ccc3ccccc3n2)cc1` (stereo not shown) [Compound 10], the “HI Titer A/Parma H1N1” value in test [4] is given as 0.012 pM.

For `O=C(COC(=O)c1ccc2ccccc2n1)Nc1ccc2c(c1)OCCO2` [Compound 11], the “HI Titer A/Parma H1N1” value in test [4] is given as 0.012 pM.

As for `O=C(COC(=O)c1ccc2ccccc2n1)Nc1ccccc1-c1ccccc1` [Compound 12], the “HI Titer A/Parma H1N1” value in test [4] was 0.012 pM.

`Cc1ccc(NC(=O)COC(=O)c2ccccn2)cc1F` [Compound 13]: in test [3], the “SI (selectivity index) = CC50/EC50, A/Parma H1N1” value was 0.44 × 10^2 and the EC50 amounted to 700 nM. In addition, in test [4], the “HI Titer A/Parma H1N1” value is 0.012 pM.

For `O=C(OCC(=O)N(c1ccccc1)C1CCCCC1)c1ccc2ccccc2n1` [Compound 14], in test [4], the “HI Titer A/Parma H1N1” value was 0.012 pM.

In the case of `CC(=O)Nc1ccc(S(=O)(=O)NC(C)c2ccc(-n3ccnc3)cc2)cc1` (stereo not shown) [Compound 16], the “HI Titer A/Parma H1N1” value in test [4] was 0.012 pM.

With `CC(NS(=O)(=O)c1ccccc1)c1ccc(-c2ccccc2)cc1` (stereo not shown) [Compound 17], the “HI Titer A/Parma H1N1” value in test [4] was 0.012 pM.

Take `Nc1cc(F)ccc1C(=O)OCC(=O)Nc1ccccc1` [Compound 18]: in test [4], the “HI Titer A/Parma H1N1” value was determined as 0.012 pM.

Regarding `COc1ccc(NC(=O)COC(=O)c2ccc3c(c2)CCC(=O)N3)cc1` [Compound 19], in test [4], the “HI Titer A/Parma H1N1” value is 0.012 pM.

Regarding `O=C(COC(=O)c1ccccn1)Nc1ccc(-c2ccccc2)cc1` [Compound 20], in test [4], the “HI Titer A/Parma H1N1” value is 0.012 pM.

Take `O=C1CCCN1c1ccc(CNS(=O)(=O)c2ccc(F)cc2)cc1` [Compound 23]: the “HI Titer A/Parma H1N1” value in test [4] came out at 0.012 pM.

Consider `O=C(COC(=O)c1ccccn1)Nc1ccc2c(c1)CCC2` [Compound 24], for which the “HI Titer A/Parma H1N1” value in test [4] stood at 0.047 pM.

Turning to `COc1ccc(S(=O)(=O)NCc2ccc(-n3ccnc3)cc2)cc1F` [Compound 25], in test [3], the “SI (selectivity index) = CC50/EC50, A/Parma H1N1” value is recorded as 0.44 × 10^2 and the EC50 was 700 nM. Further, the “HI Titer A/Parma H1N1” value in test [4] amounted to 0.012 pM.

With `Cc1nc(-c2cccc(NC(=O)COC(=O)c3ccc4ccccc4n3)c2)cs1` [Compound 26], the “HI Titer A/Parma H1N1” value in test [4] is 0.047 pM.

Regarding `Cc1ccc(S(=O)(=O)Nc2ccc(-n3ccnc3)c(Cl)c2)cc1` [Compound 28], the “HI Titer A/Parma H1N1” value in test [4] was determined as 0.047 pM.
